Test [1] relates to MOLP-8 human multiple myeloma cell line. Put plainly: Caspase-Glo 3/7 apoptosis induction assay in MOLP-8 cells. The test is classed as cell-based. Particulars: averaged over all runs on all batches. From the text: MCL-1 is a regulator of apoptosis and is highly over-expressed in tumor cells that escape cell death. The assay evaluates the cellular potency of small-molecule compounds targeting regulators of the apoptosis pathway, primarily MCL-1, Bfl-1, Bcl-2, and other proteins of the Bcl-2 family. Protein-protein inhibitors disrupting the interaction of anti-apoptotic regulators with BH3-domain proteins initiate apoptosis.
The Caspase-Glo® 3/7 Assay is a luminescent assay that measures caspase-3 and −7 activities in purified enzyme preparations or cultures of adherent or suspension cells. The assay provides a proluminescent caspase-3/7 substrate, which contains the tetrapeptide sequence DEVD. This substrate is cleaved to release aminoluciferin, a substrate of luciferase used in the production of light. Addition of the single Caspase-Glo® 3/7 Reagent in an “add-mix-measure” format results in cell lysis, followed by caspase cleavage of the substrate and generation of a “glow-type” luminescent signal.
This assay uses the MOLP-8 human multiple myeloma cell line, which is sensitive to MCL-1 inhibition.
Cell cultures were maintained between 0.2 and 2.0×10^6 cells/mL. The cells were harvested by collection in 50 mL conical tubes. The cells were then pelleted at 500 g for 5 mins before removing supernatant and resuspension in fresh pre-warmed culture medium. The cells were counted and diluted as needed.
The assay reagent was prepared by transferring the buffer solution to the substrate vial and mixing. The solution may be stored for up to 1 week at 4° C. with negligible loss of signal.
Compounds were delivered in assay-ready plates (Proxiplate) and stored at −20° C.
Assays always include 1 reference compound plate containing reference compounds. The plates were spotted with 40 nL of compounds (0.5% DMSO final in cells; serial dilution; […] highest conc. 1/3 dilution, 10 doses, duplicates). The compounds were used at room temperature and 4 μL of pre-warmed media was added to all wells except column 2 and 23. The negative control was prepared by adding 1% DMSO in media. The positive control was prepared by adding the appropriate positive control compound in final concentration of […] in media. The plate was prepared by adding 4 μL negative control to column 23, 4 μL positive control to column 2 and 4 μL cell suspension to all wells in the plate. The plate with cells was then incubated at 37° C. for 2 hours. The assay signal reagent is the Caspase-Glo solution described above, and 8 μL was added to all wells. The plates were then sealed and measured after 30 minutes.
The activity of a test compound was calculated as percent change in apoptosis induction as follows: […]

For test [2], the target named is T1, Myeloid Cell Leukemia 1 (Mcl-1) (Homo sapiens, UniProt Q07820).
T1 construct: Terbium (Tb) label; means of attachment not described
Kind of test: biochemical. The test is classed as binding.

The mark [3] stands for this setting: Homo sapiens, MOLP-8, 2 h, read-out: MOLP8 Caspase-Glo AC50 (nM) LD value, MOLP-8 cells, 2 hours at 37° C., caspase-3/7 luminescence.
[4] abbreviates: read-out: MOLP8 Caspase-Glo AC50 (nM) LD value, MOLP-8 cells, 2 hours at 37° C., caspase-3/7 luminescence.

Read-outs that look alike come from different tables or passages of the source.

T1 sequence (Q07820 whole entry): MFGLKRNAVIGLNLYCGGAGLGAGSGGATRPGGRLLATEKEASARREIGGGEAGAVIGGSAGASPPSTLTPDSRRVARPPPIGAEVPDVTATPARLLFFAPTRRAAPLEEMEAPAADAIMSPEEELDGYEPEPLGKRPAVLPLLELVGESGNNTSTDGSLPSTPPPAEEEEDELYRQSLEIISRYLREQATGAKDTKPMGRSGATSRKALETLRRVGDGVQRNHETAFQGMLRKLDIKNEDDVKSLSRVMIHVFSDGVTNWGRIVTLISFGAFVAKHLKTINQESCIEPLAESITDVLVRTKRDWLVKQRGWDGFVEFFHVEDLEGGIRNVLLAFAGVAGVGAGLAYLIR

As for `Cc1nn(CCC2CCOCC2)c2c1-c1c(Cl)ccc3c1c(C)c(C(=O)O)n3CCCOc1cc(cc3cc(F)ccc13)CCc1cc(nn1C)CSC2` [Compound 22], the AC50 in test [1] (setting [3]) stood at 20.1 nM. In test [2] (TB-MCL1 Ki (nM)), the affinity, expressed as Ki, was 0.029 nM. Turning to `COCCOCCn1nc2c(c1C)-c1c(Cl)ccc3c1c(C)c(C(=O)O)n3CCCOc1cc(cc3c(F)c(F)ccc13)CCc1cc(nn1C)CSC2` (single isomer, unassigned) [Compound 63], in test [1] (setting [4]), the AC50 stood at 22 nM. Moreover, the Ki in test [2] (TB-MCL1 Ki (nM)) stood at 0.026 nM.

With `Cc1nn(CCO)c2c1-c1c(Cl)ccc3c1c(C)c(C(=O)O)n3CCCOc1cc(cc3cc(F)ccc13)CCc1cc(nn1C)CSC2` [Compound 53], the AC50 in test [1] (setting [4]) stood at 1250 nM.

With `Cc1nn(CCCN)c2c1-c1c(Cl)ccc3c1c(C)c(C(=O)O)n3CCCOc1cc(cc3cc(F)ccc13)CCc1cc(nn1C)CSC2` [Compound 38], the AC50 in test [1] (setting [3]) came out at 540 nM. Moreover, the inhibitory constant (Ki) in test [2] (TB-MCL1 Ki (nM)) was 0.019 nM.

On to `Cc1nn(CCO)c2c1-c1c(Cl)ccc3c1c(C)c(C(=O)O)n3CCCOc1cc(cc3cc(F)ccc13)CCc1cc(nn1C)CSC2` [Compound 52], for which, in test [1] (setting [4]), the AC50 is 39.4 nM.

In the case of `Cc1nn(C)c2c1-c1c(Cl)ccc3c1c(C)c(C(=O)O)n3CCCOc1cc(cc3cc(F)ccc13)CCc1cc(nn1C)CSC2` [Compound 28], the AC50 in test [1] (setting [3]) stood at 16.7 nM. In test [2] (TB-MCL1 Ki (nM)), this compound yielded a Ki of 0.028 nM. The like results for `Cc1c(C(=O)O)n2c3ccc(Cl)c(c13)-c1c(nn(CCC3CCOCC3)c1C)CSCc1cc(n(C)n1)CCc1cc(c3ccc(F)cc3c1)OCCC2` [Compound 23] were, in that order, 30.6 nM and 0.016 nM. On the same counts, the results for `COCC(COC)n1nc(C)c2c1CSCc1cc(n(C)n1)CCc1cc(c3ccc(F)cc3c1)OCCCn1c(C(=O)O)c(C)c3c-2c(Cl)ccc31` [Compound 20] are 8.8 nM and 0.026 nM. The like results for `COCCOCCn1nc(C)c2c1CSCc1cc(n(C)n1)CCc1cc(c3ccc(F)c(F)c3c1)OCCCn1c(C(=O)O)c(C)c3c-2c(Cl)ccc31` (single isomer, unassigned) [Compound 64] were, in that order, 2100 nM and 2.33 nM. Take `Cc1c(C(=O)O)n2c3ccc(Cl)c(c13)-c1c(nn(C)c1C)CS(=O)(=O)Cc1cc(n(C)n1)CCc1cc(c3ccccc3c1)OCCC2` [Compound 7]: the AC50 in test [1] (setting [4]) was determined as 11900 nM. Further, in test [2] (TB-MCL1 Ki (nM)), the affinity, expressed as Ki, was 1.71 nM.

`COCCn1nc(C)c2c1CSCc1cc(n(C)n1)CCc1cc(c3ccc(Cl)cc3c1)OCCCn1c(C(=O)O)c(C)c3c-2c(Cl)ccc31` [Compound 47]: the AC50 in test [1] (setting [4]) turned out to be 2710 nM. Turning to `COCCOCCOCCn1nc2c(c1C)-c1c(Cl)ccc3c1c(C)c(C(=O)O)n3CCCOc1cc(cc3cc(F)ccc13)CCc1cc(nn1C)CSC2` [Compound 17], in test [1] (setting [3]), the AC50 worked out at 46.8 nM. In addition, the affinity in test [2] (TB-MCL1 Ki (nM)) corresponds to a Ki of 0.018 nM. On the same counts, the results for `COCCOCCn1nc(C)c2c1CSCc1cc(n(C)n1)CCc1cc(c3ccc(F)c(F)c3c1)OCCCn1c(C(=O)O)c(C)c3c-2c(Cl)ccc31` [Compound 62] are 11.3 nM and 0.027 nM. On the same counts, the results for `COCCOCCn1nc(C)c2c1C[S+]([O-])Cc1cc(n(C)n1)CCc1cc(c3ccc(F)cc3c1)OCCCn1c(C(=O)O)c(C)c3c-2c(Cl)ccc31` (single isomer, unassigned) [Compound 49] are 141 nM and 0.01 nM. For `Cc1c(C(=O)O)n2c3ccc(Cl)c(c13)-c1c(nn(C)c1C)CSCc1cc(n(C)n1)CCc1cc(c3c(F)cccc3c1)OCCC2` [Compound 5], the AC50 in test [1] (setting [3]) came out at 1290 nM. In test [2] (TB-MCL1 Ki (nM)), this compound registered a Ki of 0.411 nM.

`COCCn1nc(C)c2c1CSCc1cc(n(C)n1)CCc1cc(c3ccc(Cl)cc3c1)OCCCn1c(C(=O)O)c(C)c3c-2c(Cl)ccc31` [Compound 41]: in test [1] (setting [4]), the AC50 stood at 568 nM. Take `CNCCn1nc2c(c1C)-c1c(Cl)ccc3c1c(C)c(C(=O)O)n3CCCOc1cc(cc3cc(F)ccc13)CCc1cc(nn1C)CSC2` (single isomer, unassigned) [Compound 68]: the AC50 in test [1] (setting [3]) amounted to 440 nM. The compound also had a Ki in test [2] (TB-MCL1 Ki (nM)) of 0.008 nM. Consider `COCCOCCn1nc(C)c2c1CSCc1cc(n(C)n1)CCc1cc(c3ccc(F)cc3c1)OCCCn1c(C(=O)O)c(C)c3c-2c(Cl)ccc31` [Compound 31], for which the Ki in test [2] (read-out: TB-MCL1 Ki) worked out at 0.015 nM. Turning to `COCCOCCn1nc2c(c1C)-c1c(Cl)ccc3c1c(C)c(C(=O)O)n3CCCOc1cc(cc3c(F)c(F)ccc13)CCc1cc(nn1C)CSC2` (single isomer, unassigned) [Compound 65], the AC50 in test [1] (setting [4]) is 1600 nM. The compound also had a Ki in test [2] (TB-MCL1 Ki (nM)) of 2.98 nM. `COCCn1nc(C)c2c1CSCc1cc(n(C)n1)CCc1cc(c3ccc(F)cc3c1)OCCCn1c(C(=O)O)c(C)c3c-2c(Cl)ccc31` [Compound 18]: in test [1] (setting [3]), the AC50 was 17 nM. For the same compound, affinity in test [2] (TB-MCL1 Ki (nM)) was put at a Ki of 0.025 nM. On to `Cc1c(C(=O)O)n2c3ccc(Cl)c(c13)-c1c(nn(C)c1C)CN(C)Cc1cc(n(C)n1)CCc1cc(c3ccc(F)cc3c1)OCCC2` [Compound 9], for which the AC50 in test [1] (setting [4]) was 1170 nM. On to `COCCn1nc2c(c1C)-c1c(Cl)ccc3c1c(C)c(C(=O)O)n3CCCOc1cc(cc3cc(F)ccc13)CCc1cc(nn1C)CSC2` [Compound 19], for which, in test [1] (setting [3]), the AC50 was found to be 20.7 nM. In addition, the Ki in test [2] (TB-MCL1 Ki (nM)) was 0.035 nM.

Regarding `COCC(COC)n1nc2c(c1C)-c1c(Cl)ccc3c1c(C)c(C(=O)O)n3CCCOc1cc(cc3cc(F)ccc13)CCc1cc(nn1C)CSC2` [Compound 21], in test [1] (setting [3]), the AC50 is 49.5 nM. The compound also displayed a Ki in test [2] (TB-MCL1 Ki (nM)) of 0.066 nM. In the case of `Cc1c(C(=O)O)n2c3ccc(Cl)c(c13)-c1c(nn(C)c1C)CSCc1cc(n(C)n1)CCc1cc(c3ccccc3c1)OCCC2` [Compound 2], the AC50 in test [1] (setting [3]) was found to be 1260 nM. In test [2] (TB-MCL1 Ki (nM)), the affinity corresponds to a Ki of 0.483 nM. As for `COCCOCCn1nc(C)c2c1CS(=O)(=O)Cc1cc(n(C)n1)CCc1cc(c3ccc(F)cc3c1)OCCCn1c(C(=O)O)c(C)c3c-2c(Cl)ccc31` (single isomer, unassigned) [Compound 67], in test [1] (setting [3]), the AC50 was found to be 104 nM. Moreover, in test [2] (TB-MCL1 Ki (nM)), the inhibitory constant (Ki) stood at 0.017 nM. On the same counts, the results for `COCCOCCOCCn1nc(C)c2c1CSCc1cc(n(C)n1)CCc1cc(c3ccc(F)cc3c1)OCCCn1c(C(=O)O)c(C)c3c-2c(Cl)ccc31` [Compound 16] are 19.7 nM and 0.024 nM.

Turning to `Cc1c(C(=O)O)n2c3ccc(Cl)c(c13)-c1c(nn(C)c1C)CN(C)Cc1cc(n(C)n1)CCc1cc(c3ccc(F)cc3c1)OCCC2` [Compound 8], in test [1] (setting [4]), the AC50 is 68.8 nM. Consider `Cc1c(C(=O)O)n2c3ccc(Cl)c(c13)-c1c(nn(C)c1C)CS(=O)(=O)Cc1cc(n(C)n1)CCc1cc(c3ccccc3c1)OCCC2` [Compound 6], for which the AC50 in test [1] (setting [4]) turned out to be 931 nM. The affinity in test [2] (TB-MCL1 Ki (nM)) corresponds to a Ki of 0.059 nM.

Consider `CNCCn1nc(C)c2c1CSCc1cc(n(C)n1)CCc1cc(c3ccc(F)cc3c1)OCCCn1c(C(=O)O)c(C)c3c-2c(Cl)ccc31` (single isomer, unassigned) [Compound 69], for which the AC50 in test [1] (setting [3]) is 402 nM. The affinity in test [2] (TB-MCL1 Ki (nM)) corresponds to a Ki of 0.014 nM. For the compound `Cc1nn(CCOCCO)c2c1-c1c(Cl)ccc3c1c(C)c(C(=O)O)n3CCCOc1cc(cc3cc(F)ccc13)CCc1cc(nn1C)CSC2` [Compound 51], the AC50 in test [1] (setting [3]) stood at 87.3 nM. Further, the affinity in test [2] (TB-MCL1 Ki (nM)) corresponds to a Ki of 0.013 nM. For `COCCOCCn1nc(C)c2c1C[S+]([O-])Cc1cc(n(C)n1)CCc1cc(c3ccc(F)cc3c1)OCCCn1c(C(=O)O)c(C)c3c-2c(Cl)ccc31` (single isomer, unassigned) [Compound 50], the AC50 in test [1] (setting [4]) was 83.6 nM. The same compound displayed a Ki in test [2] (TB-MCL1 Ki (nM)) of 0.013 nM.

For orientation: Ki means the dissociation constant of the complex between target and ligand, obtained from inhibition or displacement.

The record behind these values is US20230130109A1, “MACROCYCLIC INDOLE DERIVATIVES AS INHIBITORS OF MCL-1” (priority 2020, published 2023).
